Tests used:
Colon-26 cells = test: In vitro photosensitizing efficacy (MTT assay); assay type: cell-based; conditions: for PDT efficacy compared to the free base analogs: In(III) complex vs. free base; for in vitro photosensitizing efficacy among all the compounds tested (fraction survival vs. light dose): 24 h incubation, light 0-2 J/cm^2, MTT
Experimental: In graphs A-E, Y=fraction surviving and X=Light dose in J/cm^2. The numbers in the legends refer to compound number in FIGS. 7-12.
In vitro Photosensitizing Efficacy (MTT Assay]: Colon-26 cells were grown in α-DMEM with 10% fetal calf serum, and penicillin and streptomycin. Cells were maintained in 5% CO2 and 95% air at 100% humidity. For phototoxicity studies, cells were placed in 96-well plates at a density of 5×10^4 cells/well, in complete medium. 24 h later, compounds were added at variable concentration. After 24 incubation in the dark at 37° C., the cells were irradiated with a laser light from an argon pumped dye laser using flunces of 0-2 J/cm^2 at a dose of 5.6 mW/cm^2. After PDT, the cells were washed once, placed in complete medium, and incubated for 48 h. Cells were incubated with 10 μL/well of 4 mg/mL MTT for the final 4 h. The MTT-containing medium was removed, and 100 μL DMSO was added to solubilize the formazan crystals. The absorbance of the wells was read on a microtiter plate reader at a wavelength of 560 nm.^10 The results were plotted as fraction survival vs. the light dose used at the same concentrations. […] These compounds are currently being evaluated for in vivo efficacy, where the pharmacokinetic and the pharmacodynamic properties of the molecules will have a significant impact in efficacy.

[1] = earlier work; cited from earlier work

Compound	PDT efficacy compared to the free base analogs (Colon-26 cells)	in vitro photosensitizing efficacy among all the compounds tested (fraction survival vs. light dose) (Colon-26 cells)	PDT activity among alkyl ether analogs of pyropheophorbide-a [1]
CCCCCCOC(C)c1c(C)/c2[n]3/c1=C\C1=NC(=C\c4c(C)c5c([n]4[In]3[Cl])/C(=C3N=C(\C=2)C(C)=C\3CCC(=O)OC)CC5=O)/[C@H](CC)[C@H]1C (some centres unmarked) [compound 24]	enhanced PDT efficacy	–	–
CC[C@H]1/C2=C/c3c(C)c4c5[n]3[In]([Cl])[n]3/c(c(C)c(C(C)=O)/c3=C/C(=N2)[C@@H]1C)=C\C1=NC(=C\5CC4=O)/[C@@H](CCC(=O)OC)[C@@H]1C [compound 23]	–	most effective	–
CC[C@H]1/C2=C/c3c(C)c4c5[n]3[In]([Cl])[n]3/c(c(C)c(C(C)=O)/c3=C/C(=N2)[C@@H]1C)=C\C1=NC(=C\5CC4=O)/C(CCC(=O)OC)=C1C [compound 22]	enhanced PDT efficacy	most effective	–
3-(1-hexyloxyethyl)-3-devinyl-pyropheophorbide-a [compound 3a]	–	–	most effective

From patent US8679459B2, “B ring reduced-D ring oxidized tetrapyrrolic photosensitizers for photodynamic therapy and tumor imaging” (Health Research, Inc., priority 2008, dated 2014)
